Assays:
[1] = test system: Trich. mentagrophytes ATCC 9129; test: Fungistatic activity, series dilution test; type: cell-based; conditions: Sabouraud broth, 2 to 4 days at 26° C.
Method: (§1) V. Determining the Fungistatic Activity
(§2) The fungistatic activity was determined by the series dilution test (microtitre system). Sabouraud broth was used as the nutrient medium. The inoculum amounted to about 10^4 to 10^5 CFU/ml (CFU=colony-forming units); the incubation period was 2 to 4 days at 26° C.
(§3) The lowest concentration which allows no visible growth (minimum inhibitory concentration MIC) was determined.
(§4) The abovementioned compounds B, E, G, I, K, L, N, Q and R were tested. The MIC is given in μg/ml.

Rhod. rubra 49 = test: Fungistatic activity, series dilution test; type: cell-based; conditions: Sabouraud broth, 2 to 4 days at 26° C.
Method: as §1, §2, §3, §4

Pen. notatum CBS 19746 = test: Fungistatic activity, series dilution test; type: cell-based; conditions: Sabouraud broth, 2 to 4 days at 26° C.
Method: as §1, §2, §3, §4

[2] = test system: Cand. albicans ATCC 10231; test: Fungistatic activity, series dilution test; type: cell-based; conditions: Sabouraud broth, 2 to 4 days at 26° C.
Method: as §1, §2, §3, §4

[3] = test system: Sacch. carisbergensis ATCC 9080; test: Fungistatic activity, series dilution test; type: cell-based; conditions: Sabouraud broth, 2 to 4 days at 26° C.
Method: as §1, §2, §3, §4

Asp. niger ATCC 16404 = test: Fungistatic activity, series dilution test; type: cell-based; conditions: Sabouraud broth, 2 to 4 days at 26° C.
Method: as §1, §2, §3, §4

[4] = molecular target: T1, 2,3-epoxysqualene-lanosterol-cyclase (Rattus norvegicus, UniProt P48450); test: In-vivo activity in the rat after oral administration: 2,3-epoxysqualene level in the liver
T1 construct: Measuring the in-vivo Activity in the Rat after Oral Administration; from tissue; host or cells: living rat; 2,3-epoxysqualene measured in the liver
T1 sequence (P48450 1-733): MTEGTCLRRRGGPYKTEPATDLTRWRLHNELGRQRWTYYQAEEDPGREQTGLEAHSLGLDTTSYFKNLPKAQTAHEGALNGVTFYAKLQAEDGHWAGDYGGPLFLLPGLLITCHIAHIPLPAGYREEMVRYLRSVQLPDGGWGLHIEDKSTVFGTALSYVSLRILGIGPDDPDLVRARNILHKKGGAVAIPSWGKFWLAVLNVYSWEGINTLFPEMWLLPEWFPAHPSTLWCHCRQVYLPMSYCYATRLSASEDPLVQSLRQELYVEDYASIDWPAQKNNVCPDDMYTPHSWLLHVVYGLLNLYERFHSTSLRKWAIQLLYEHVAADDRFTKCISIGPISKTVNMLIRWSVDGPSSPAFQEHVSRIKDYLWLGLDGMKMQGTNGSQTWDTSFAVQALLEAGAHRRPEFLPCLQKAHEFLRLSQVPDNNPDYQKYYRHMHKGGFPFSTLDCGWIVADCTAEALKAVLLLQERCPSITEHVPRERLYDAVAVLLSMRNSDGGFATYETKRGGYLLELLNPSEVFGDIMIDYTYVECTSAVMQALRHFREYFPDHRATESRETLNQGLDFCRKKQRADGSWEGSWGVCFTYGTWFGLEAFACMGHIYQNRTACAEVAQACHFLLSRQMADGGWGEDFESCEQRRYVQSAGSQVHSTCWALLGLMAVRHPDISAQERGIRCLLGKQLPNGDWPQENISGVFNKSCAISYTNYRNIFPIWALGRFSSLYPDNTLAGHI
Method: II. Measuring the in-vivo Activity in the Rat after Oral Administration
Inhibiting the enzyme 2,3-epoxysqualene-lanosterol-cyclase causes an increase in the 2,3-epoxisqualene levels in the liver and plasma. The quantity of 2,3-epoxysqualene formed therefore serves as a direct measurement of the potency on the animal as a whole. The amounts were determined using the method described in J. Lipid. Res. 38, 564-575, [1997] at t=3 or 8 hours after administration of the substance in concentrations of c=0.01, 0.03, 0.1, 0.3 and 1.0 mg/kg. Table 3 which follows gives the results obtained for the abovementioned substances A, B, C, E, G, H, O and R by way of example.
In the control animals there were no measurable 2,3-epoxisqualene levels under these conditions.

[5] = Lipid reduction in the normolipaemic golden hamster; type: in vivo; conditions: compared with control group
Method: III. Lipid Reduction in the Normolipaemic Golden Hamster This was determined using the method described in J. Lipid. Res. 38, 564-575, (1997). At the end of the experiment the total cholesterol, β-lipoprotein-cholesterol and HDL-cholesterol were determined and compared with the values of a control group which were fed without any test substance. The lipid-lowering activity of the abovementioned compounds E, G and I was tested.

[6] = test system: HaCat cells (human keratinocytes); test: Inhibition of cell proliferation (BrdU ELISA); type: cell-based; conditions: 10^−6 mol/l, average of three measurements, given as a percentage of the control (control 100%)
Method: IV. Inhibition of Cell Proliferation
HaCat cells (human keratinocytes) are seeded at a density of 10,000 cells per well in a 96 well microtitre plate. The culture medium used is Dulbecco's modified eagle medium (DMEM) with the addition of 10% calf serum. The cells are incubated for two days in an incubator, then the test substance, dissolved in dimethyl sulphoxide and diluted with culture medium, is added. After another two days incubation, 5-bromo-2′-deoxyuridine is added and the test results are determined according to the instructions (Boehringer Mannheim, Cell proliferation ELISA, BrdU(colorimetric)). The BrdU measurement was carried out at 380-490 nm in the Plate Reader made by Bio Rad.
The proliferation-inhibiting activity of compounds E, G and H was investigated. The average of three measurements was calculated and the results are given as a percentage of the control (Table 5).

[7] = test system: 14C-acetate incorporation into the steroids which can be precipitated with digitonin (cholesterol biosynthesis); test: Inhibition of 14C-acetate incorporation into the steroids which can be precipitated with digitonin; type: cell-based
Excerpt: I. Measuring the Inhibition of ^14C-acetate incorporation into the steroids which can be precipitated with digitonin: The inhibitory effect was investigated using the method described in J. Lipid. Res. 37, 148-157 [1996] at test concentrations of 10^−8 and 10^−9 mol/l.

Structure (SMILES): CN(C)Cc1ccc([C@H]2CC[C@H](N(C)C(=O)Oc3ccc(Cl)cc3)CC2)cc1.Cl [E, trans-O-(4-chlorophenyl)-N-4-[4-(dimethylaminomethyl)-phenyl]cyclohexyl-N-methylcarbamate-hydrochloride]
- MIC Trich. [1]: 2 µg/mL
- MIC Rhod. (Rhod. rubra 49): 16 µg/mL
- MIC Pen. (Pen. notatum CBS 19746): 2 µg/mL
- MIC Cand. [2]: 16 µg/mL
- MIC Sacc. [3]: 128 µg/mL
- MIC Asp. (Asp. niger ATCC 16404): 4 µg/mL
- 2,3-epoxysqualene concentration in the liver (rat) ([4]; 0.01 mg/kg oral, 3 h after administration): 20.3 µg/g
- 2,3-epoxysqualene concentration in the liver (rat) ([4]; 0.01 mg/kg oral, 8 h after administration): 32.7 µg/g
- 2,3-epoxysqualene concentration in the liver (rat) ([4]; 0.03 mg/kg oral, 3 h after administration): 39.0 µg/g
- 2,3-epoxysqualene concentration in the liver (rat) ([4]; 0.03 mg/kg oral, 8 h after administration): 44.6 µg/g
- 2,3-epoxysqualene concentration in the liver (rat) ([4]; 0.1 mg/kg oral, 3 h after administration): 92.5 µg/g
- 2,3-epoxysqualene concentration in the liver (rat) ([4]; 0.1 mg/kg oral, 8 h after administration): 191.5 µg/g
- 2,3-epoxysqualene concentration in the liver (rat) ([4]; 0.3 mg/kg oral, 3 h after administration): 63.4 µg/g
- 2,3-epoxysqualene concentration in the liver (rat) ([4]; 0.3 mg/kg oral, 8 h after administration): 180.0 µg/g
- HDL-cholesterol ([5]; dose 0.5 mg/kg/day): −18.2%
- Total cholesterol ([5]; dose 0.5 mg/kg/day): −22.5%
- β-Lipoprotein-cholesterol ([5]; dose 0.5 mg/kg/day): −27.5%
- HDL-cholesterol ([5]; dose 1.5 mg/kg/day): −24.0%
- Total cholesterol ([5]; dose 1.5 mg/kg/day): −34.1%
- β-Lipoprotein-cholesterol ([5]; dose 1.5 mg/kg/day): −48.4%
- HDL-cholesterol ([5]; dose 4.9 mg/kg/day): −25.1%
- Total cholesterol ([5]; dose 4.9 mg/kg/day): −34.3%
- β-Lipoprotein-cholesterol ([5]; dose 4.9 mg/kg/day): −45.1%
- Cell proliferation (% of control) [6]: 19.6%
- IC50 ([7]; 14C-acetate incorporation): 0.3 nM
- percentage inhibition of 14C-acetate incorporation ([7]; test concentration 10^−8 mol/l): −85%
- percentage inhibition of 14C-acetate incorporation ([7]; test concentration 10^−9 mol/l): −57%

Reference: patent US20020019536A1, “NEW URETHANES, THIO AND DITHIO ANALOGUES AND THEIR USE AS INHIBITORS OF CHOLESTEROL BIOSYNTHESIS” (priority 1997, published 2002)
